Columns and labels:
[1] = system: MNK2 (MNK2a or MNK2b) or MNK1; conditions: cell culture cells transfected with MNK2 (MNK2a or MNK2b) or MNK1; cited from earlier work
MNK2a = MNK2a (Homo sapiens (Human), UniProt Q9HBH9); experiment: MNK2a in vitro kinase assay (Assay 2), ADP-Glo; assay type: biochemical; conditions: read-out: MNK2 IC50
MNK1 = MNK1 (Homo sapiens (Human), UniProt Q9BUB5); experiment: MNK1 in vitro kinase assay (Assay 3), Z'-LYTE; assay type: biochemical; conditions: for inhibition at 1 µM: compound concentration of 1 μM, read-out: MNK1 % INH
In short: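 Pre-activated GST-MNK1a phosphorylated a FRET peptide for 60 min at room temperature in HEPES pH 7.5 buffer with Mg2+/Mn2+, EGTA and DTT, with 1% DMSO final. Protease development followed for 60 min.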

Sequence of MNK2a (Q9HBH9 whole entry): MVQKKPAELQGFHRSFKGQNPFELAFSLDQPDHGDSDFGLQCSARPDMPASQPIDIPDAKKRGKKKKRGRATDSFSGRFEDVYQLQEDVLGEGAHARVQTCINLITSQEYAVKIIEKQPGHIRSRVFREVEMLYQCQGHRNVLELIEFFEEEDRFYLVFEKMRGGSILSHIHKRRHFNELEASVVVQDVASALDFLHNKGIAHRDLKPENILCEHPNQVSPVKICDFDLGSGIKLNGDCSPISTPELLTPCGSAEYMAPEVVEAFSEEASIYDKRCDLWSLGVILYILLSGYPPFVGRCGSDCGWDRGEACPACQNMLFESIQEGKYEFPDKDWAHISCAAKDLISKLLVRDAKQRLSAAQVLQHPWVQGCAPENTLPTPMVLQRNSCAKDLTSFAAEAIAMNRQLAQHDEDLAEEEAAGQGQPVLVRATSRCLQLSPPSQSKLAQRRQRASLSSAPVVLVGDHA
Sequence of MNK1 (Q9BUB5 other isoform, or with tags, fused parts or gaps): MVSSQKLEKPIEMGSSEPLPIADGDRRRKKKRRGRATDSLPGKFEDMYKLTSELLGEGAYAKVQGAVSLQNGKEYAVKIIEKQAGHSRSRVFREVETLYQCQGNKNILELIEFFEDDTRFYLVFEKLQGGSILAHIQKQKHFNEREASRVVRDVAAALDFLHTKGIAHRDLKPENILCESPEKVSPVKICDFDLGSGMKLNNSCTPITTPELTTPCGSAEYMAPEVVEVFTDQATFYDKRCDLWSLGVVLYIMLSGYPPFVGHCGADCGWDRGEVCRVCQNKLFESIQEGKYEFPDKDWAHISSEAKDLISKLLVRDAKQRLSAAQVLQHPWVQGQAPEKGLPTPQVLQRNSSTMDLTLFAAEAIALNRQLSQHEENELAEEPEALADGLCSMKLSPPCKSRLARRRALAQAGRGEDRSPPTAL

Structure (SMILES) | reduction of phosphorylated eIF4E [1] | IC50 (MNK2a) [nM] | inhibition at 1 µM (MNK1) [%] | IC50 (MNK1) [nM]
Nc1ncnc2n[nH]c(Nc3ccc(F)cc3)c12 [CGP57380] | strong reduction of phosphorylated eIF4E |  |  | 
Cc1cc(N=S(C)(C)=O)cc2ncnc(Nc3ccc(F)cc3OC(C)c3nccs3)c12 (stereo not drawn) [Example 3.035] |  | 37 | 89 | 
CCN(C)C(=O)[C@@H](C)Oc1cc(F)ccc1Nc1ncnc2cc(N=S(C)(C)=O)cc(C)c12 [Example 4.068] |  | 4 | 86 | 
Cc1cc([C@@H](C)Oc2cc(F)ccc2Nc2ncnc3cc(N=S4(=O)CCCC4)cc(Cl)c23)on1 [Example 2.014] |  | 2 | 99 | 
CS(C)(=O)=Nc1cc(C(F)(F)F)c2c(Nc3ccc(F)cc3OC(CF)CF)ncnc2c1 [Example 1.002] |  | 6 | 59 | 
CCOC(=O)[C@H](C)Oc1cc(F)ccc1Nc1ncnc2cc(N=S(C)(C)=O)cc(C)c12 [Example 3.032] |  | 16 | 26 | 
Cc1cc(N=S(C)(C)=O)cc2ncnc(Nc3ccc(F)cc3O[C@H](C)C(=O)NCC(C)(C)O)c12 [Example 4.069] |  | 6 | 93 | 
Cc1cc(C(C)Oc2cc(F)ccc2Nc2ncnc3cc(N=S(C)(C)=O)cc(F)c23)on1 (stereo not drawn) [Example 2.002] |  | 6 | 94 | 
Cc1cc(N=S(C)(C)=O)cc2ncnc(Nc3ccc(F)cc3OCC3CCNC(=O)C3)c12 (stereo not drawn) [Example 3.033] |  | 2 | 56 | 
Cc1cc(COc2cc(F)ccc2Nc2ncnc3cc(N=S(C)(C)=O)cc(C)c23)no1 [Example 3.009] |  | 7 | 95 | 
Cc1cc(N=S2(=O)CCCC2)cc2ncnc(Nc3ccc(F)cc3O[C@H](C)C(F)(F)F)c12 [Example 2.048] |  | 2 |  | 40
C[C@@H](Oc1cc(F)ccc1Nc1ncnc2cc(N=S3(=O)CCC3)cc(Cl)c12)C(=O)NCC(F)(F)F [Example 4.138] |  | 1 | 64 | 27
CCC(C)NC(=O)[C@@H](C)Oc1cc(F)ccc1Nc1ncnc2cc(N=S(C)(C)=O)cc(C)c12 (stereo partly drawn) [Example 4.048] |  | 2 | 98 | 
Cc1cc(N=S2(=O)CCCC2)cc2ncnc(Nc3ccc(F)cc3O[C@H](C)C(=O)NCC3CCCO3)c12 (stereo partly drawn) [Example 4.001] |  | 5 | 97 | 
Cc1cc(C(C)Oc2cc(C(N)=O)ccc2Nc2ncnc3cc(N=S(C)(C)=O)cc(C)c23)on1 (stereo not drawn) [Example 1.012] |  | 6 | 96 | 
Cc1cc(N=S2(=O)CCCC2)cc2ncnc(Nc3ccc(F)cc3O[C@H](C)C(=O)N(C)C)c12 [Example 4.051] |  | 5 | 82 | 
CCOC(=O)[C@@H](C)Oc1cc(F)ccc1Nc1ncnc2cc(N=S3(=O)CCCC3)cc(C)c12 [Example 3.012] |  | 23 | 100 | 

Structure (SMILES) | reduction of phosphorylated eIF4E [1] | IC50 (MNK2a) [nM] | inhibition at 1 µM (MNK1) [%] | IC50 (MNK1) [nM]
Cc1cc(N=S(C)(C)=O)cc2ncnc(Nc3ccc(F)cc3O[C@H](C)C(=O)N(C)C3CCCC3)c12 [Example 4.053] |  | 16 | 80 | 
Cc1cc(N=S(C)(C)=O)cc2ncnc(Nc3cccnc3OC(C)C)c12 [Example 2.017] |  | 2 | 90 | 
COCCNC(=O)[C@@H](C)Oc1cc(F)ccc1Nc1ncnc2cc(N=S(C)(C)=O)cc(C)c12 [Example 4.035] |  | 66 | 87 | 
Cc1cc(N=S(C)(C)=O)cc2ncnc(Nc3ccc(F)cc3O[C@@H](C)CNC(=O)C(F)(F)F)c12 [Example 5.004] |  | 2 |  | 66
Cc1cc(N=S(C)(C)=O)cc2ncnc(Nc3ccc(F)cc3OC(C)CC3CCOCC3)c12 (stereo not drawn) [Example 3.019] |  | 24 | 48 | 
Cc1cc(N=S2(=O)CCCC2)cc2ncnc(Nc3ccc(F)cc3O[C@H](C)C(=O)NC3CCC3)c12 [Example 4.015] |  | 2 | 102 | 
Cc1cc(N=S(C)(C)=O)cc2ncnc(Nc3ccc(F)cc3OCC3CCOC3)c12 (stereo not drawn) [Example 3.048] |  | 11 | 88 | 
Cc1cc(N=S2(=O)CCCC2)cc2ncnc(Nc3ccc(F)cc3O[C@H](C)C(=O)N3CCC(=O)CC3)c12 [Example 4.054] |  | 9 | 95 | 
Cc1cc(N=S2(=O)CCCC2)cc2ncnc(Nc3ccc(F)cc3O[C@H](C)C(=O)NCC(C)(C)O)c12 [Example 4.058] |  | 3 |  | 75
COCCN(C)C(=O)[C@@H](C)Oc1cc(F)ccc1Nc1ncnc2cc(N=S(C)(C)=O)cc(C)c12 [Example 4.055] |  | 14 | 62 | 
COCCN(C)C(=O)[C@@H](C)Oc1cc(F)ccc1Nc1ncnc2cc(N=S3(=O)CCCC3)cc(C)c12 [Example 4.041] |  | 7 | 82 | 
Cc1cc(N=S(C)(C)=O)cc2ncnc(Nc3ccc(C(N)=O)cc3OC(C)C)c12 [Example 1.014] |  | 5 | 97 | 
COCC(C)NC(=O)[C@@H](C)Oc1cc(F)ccc1Nc1ncnc2cc(N=S(C)(C)=O)cc(C)c12 (stereo partly drawn) [Example 4.021] |  | 12 | 92 | 
CCS(C)(=O)=Nc1cc(Cl)c2c(Nc3cccnc3O[C@H](C)c3cc(C)no3)ncnc2c1 (stereo partly drawn) [Example 1.005] |  | 2 | 98 | 
Cc1cc(N=S(C)(C)=O)cc2ncnc(Nc3ccc(F)cc3OC(C)COC3CCOC3)c12 (stereo not drawn) [Example 3.028] |  | 6 | 92 | 
O=S1(=Nc2cc(C(F)(F)F)c3c(Nc4ccc(F)cc4OC(CF)CF)ncnc3c2)CCNCC1 [Example 1.009] |  | 26 | 64 | 
